Experimental data: the supplement of paper PMC10307832

Legend:
Test in all cases: relative viability (nuclei count vs DMSO), 5 days (fraction); higher = more cells survive
BAY61-3606 + Luminespib = compound: COC1=C(C=C(C=C1)C2=CC3=NC=CN3C(=N2)NC4=C(C=CC=N4)C(=O)N)OC [BAY61-3606] + CCNC(=O)c1noc(-c2cc(C(C)C)c(O)cc2O)c1-c1ccc(CN2CCOCC2)cc1 [Luminespib] (partner 0.01 µM)
Procedure, shortened: (§1)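 Nuclei were stained with Hoechst during a one-step fixation (final 0.05% Triton X-100, 1% formaldehyde, 1 ug/ml Hoechst) carried out 5 days after dosing, then counted on 4× images. The cells, lung cancer lines in 1536-well plates, had been dosed by pin tool the day after seeding with one drug alone or a fixed anchor-drug dose plus five library-drug doses (not always all listed) in √10 steps. Relative viability is the nuclei count in treated wells divided by that in vehicle wells, and each value is the median of duplicate plates.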

Doxorubicin + Trametinib = compound: COc1cccc2c1C(=O)c1c(O)c3c(c(O)c1C2=O)C[C@@](O)(C(=O)CO)C[C@@H]3O[C@H]1C[C@H](N)[C@H](O)[C@H](C)O1 [Doxorubicin] + CC(=O)Nc1cccc(-n2c(=O)n(C3CC3)c(=O)c3c(Nc4ccc(I)cc4F)n(C)c(=O)c(C)c32)c1 [Trametinib] (partner 0.02 µM)
Procedure, shortened: as §1

Doxorubicin + Linsitinib = compound: COc1cccc2c1C(=O)c1c(O)c3c(c(O)c1C2=O)C[C@@](O)(C(=O)CO)C[C@@H]3O[C@H]1C[C@H](N)[C@H](O)[C@H](C)O1 [Doxorubicin] + C[C@]1(O)C[C@@H](c2nc(-c3ccc4ccc(-c5ccccc5)nc4c3)c3c(N)nccn32)C1 [Linsitinib] (partner 1 µM)
Procedure, shortened: as §1

Doxorubicin + Decitabine = compound: COc1cccc2c1C(=O)c1c(O)c3c(c(O)c1C2=O)C[C@@](O)(C(=O)CO)C[C@@H]3O[C@H]1C[C@H](N)[C@H](O)[C@H](C)O1 [Doxorubicin] + Nc1ncn([C@H]2C[C@H](O)[C@@H](CO)O2)c(=O)n1 [Decitabine] (partner 2 µM)
Procedure, shortened: as §1

Row | Cell Line | relative viability (BAY61-3606 + Luminespib; first compound 0.02 µM) | relative viability (BAY61-3606 + Luminespib; first compound 0.06325 µM) | relative viability (BAY61-3606 + Luminespib; first compound 0.2 µM) | relative viability (BAY61-3606 + Luminespib; first compound 0.6325 µM) | relative viability (BAY61-3606 + Luminespib; first compound 2 µM) | relative viability (Doxorubicin + Trametinib; first compound 0.001 µM) | relative viability (Doxorubicin + Trametinib; first compound 0.003162 µM) | relative viability (Doxorubicin + Trametinib; first compound 0.01 µM) | relative viability (Doxorubicin + Trametinib; first compound 0.03162 µM) | relative viability (Doxorubicin + Trametinib; first compound 0.1 µM) | relative viability (Doxorubicin + Linsitinib; first compound 0.001 µM) | relative viability (Doxorubicin + Linsitinib; first compound 0.003162 µM) | relative viability (Doxorubicin + Linsitinib; first compound 0.01 µM) | relative viability (Doxorubicin + Linsitinib; first compound 0.03162 µM) | relative viability (Doxorubicin + Linsitinib; first compound 0.1 µM) | relative viability (Doxorubicin + Decitabine; first compound 0.001 µM) | relative viability (Doxorubicin + Decitabine; first compound 0.003162 µM) | relative viability (Doxorubicin + Decitabine; first compound 0.01 µM) | relative viability (Doxorubicin + Decitabine; first compound 0.03162 µM) | relative viability (Doxorubicin + Decitabine; first compound 0.1 µM)
1 | NCI-H1395 | 0.849 | 0.595 | 0.733 | 0.568 | 0.546 | 0.929 | 0.948 | 0.964 | 0.971 | 0.867 | 1.03 | 1.09 | 1.02 | 1.11 | 0.92 | 0.724 | 0.666 | 0.634 | 0.614 | 0.651
2 | NCI-H1437 | 1.14 | 1.15 | 1 | 1.19 | 1.04 | 0.564 | 0.609 | 0.46 | 0.363 | 0.26 | 1 | 1.13 | 0.965 | 0.591 | 0.28 | 0.538 | 0.616 | 0.501 | 0.417 | 0.361
3 | NCI-H1651 | 1.03 | 0.869 | 0.664 | 1.13 | 0.603 | 0.82 | 0.843 | 0.817 | 0.707 | 0.796 | 0.838 | 0.944 | 0.831 | 0.401 | 0.292 | 0.534 | 0.63 | 0.638 | 0.506 | 0.571
4 | NCI-H1666 | 1.12 | 0.998 | 1.13 | 1.08 | 1.05 | – | 0.796 | 0.65 | 0.584 | 0.517 | 0.803 | 0.762 | 0.561 | 0.268 | 0.285 | 0.671 | 0.759 | 0.662 | 0.692 | 0.697
5 | NCI-H1734 | 0.26 | 0.179 | 0.188 | 0.278 | 0.167 | 0.689 | 0.724 | 0.641 | 0.611 | 0.634 | 0.945 | 0.922 | 0.826 | 0.731 | 0.871 | 0.491 | 0.494 | 0.478 | 0.462 | 0.513
6 | NCI-H1755 | 0.367 | 0.495 | 0.397 | 0.433 | 0.384 | 0.791 | 0.804 | 0.784 | 0.77 | 0.88 | 0.971 | 0.98 | 1.02 | 1.05 | 1.01 | 0.774 | 0.763 | 0.736 | 0.714 | 0.743
7 | NCI-H1792 | 0.462 | 0.404 | 0.439 | 0.581 | 0.274 | 0.393 | 0.556 | 0.456 | 0.392 | 0.422 | 0.563 | 0.612 | 0.543 | 0.455 | 0.474 | 0.622 | 0.677 | 0.57 | 0.485 | 0.525
8 | NCI-H1793 | 0.177 | 0.159 | – | 0.163 | 0.182 | – | 0.4 | 0.373 | 0.4 | 0.4 | – | 0.813 | 0.848 | 0.579 | 0.911 | – | 0.482 | 0.501 | 0.403 | 0.456
9 | NCI-H1915 | 0.777 | 0.86 | 0.686 | 0.731 | 0.369 | 0.306 | 0.31 | 0.313 | 0.312 | 0.303 | 1.14 | 1.03 | 1.08 | 1.05 | 1.1 | 0.265 | 0.263 | 0.283 | 0.259 | 0.271
10 | NCI-H1944 | 0.802 | 0.674 | 0.734 | 0.688 | 0.282 | 0.398 | 0.422 | 0.385 | 0.399 | 0.449 | 1.17 | 1.23 | 1.34 | 1.16 | 1.3 | 0.441 | 0.506 | 0.403 | 0.372 | 0.439
11 | NCI-H1975 | 0.18 | 0.199 | 0.268 | 0.247 | 0.119 | 0.256 | 0.332 | 0.376 | 0.234 | 0.248 | 1.09 | 1.02 | 0.845 | 0.572 | 0.464 | 0.391 | 0.393 | 0.392 | 0.317 | 0.322
12 | NCI-H1993 | 0.947 | 0.736 | 0.873 | 0.901 | 0.527 | 0.667 | – | 0.501 | 0.473 | 0.513 | 0.711 | 0.751 | 0.741 | 0.659 | 0.733 | 0.625 | 0.582 | 0.546 | 0.551 | 0.549
13 | NCI-H2009 | 1.08 | 1.04 | 0.976 | 0.992 | 0.902 | 0.294 | 0.287 | 0.268 | 0.171 | 0.153 | 1.16 | 1.15 | 1.28 | 0.953 | 0.639 | 0.445 | 0.384 | 0.333 | 0.263 | 0.274
14 | NCI-H2023 | 0.885 | 0.614 | 0.669 | 0.778 | 0.535 | 0.456 | 0.513 | 0.437 | 0.151 | 0.11 | 0.642 | 0.62 | 0.549 | 0.279 | 0.102 | 0.209 | 0.219 | 0.171 | 0.0903 | 0.0802
15 | NCI-H2085 | 0.416 | 0.469 | 0.486 | 0.443 | 0.412 | 0.623 | 0.557 | 0.564 | 0.472 | 0.496 | 1.03 | 0.927 | 0.815 | 0.716 | 0.82 | 0.536 | 0.5 | 0.522 | 0.521 | 0.553
16 | NCI-H2087 | 0.188 | 0.132 | 0.181 | 0.196 | 0.139 | 0.17 | 0.201 | 0.158 | 0.172 | 0.166 | 0.789 | 0.912 | 1.14 | 0.892 | 0.98 | 0.291 | 0.264 | 0.239 | 0.242 | 0.173
17 | NCI-H2126 | 0.964 | 0.916 | 0.869 | 1.07 | 0.731 | 0.6 | 0.572 | 0.561 | 0.526 | 0.601 | 0.704 | 0.748 | 0.739 | 0.712 | 0.718 | 0.531 | 0.608 | 0.562 | 0.57 | 0.587
18 | NCI-H2347 | 0.373 | 0.362 | 0.386 | 0.658 | 0.412 | 0.197 | 0.297 | 0.284 | 0.281 | 0.283 | 0.978 | 0.923 | 0.923 | 0.889 | 0.959 | 0.612 | 0.71 | 0.646 | 0.539 | 0.557
19 | NCI-H2405 | 0.736 | 0.569 | 0.716 | 0.739 | 0.485 | 0.595 | 0.548 | 0.601 | 0.446 | 0.584 | – | 0.938 | 0.887 | 0.707 | 0.519 | 0.711 | 0.759 | 0.774 | 0.579 | 0.497
20 | NCI-H3122 | 0.121 | 0.0764 | 0.0868 | 0.099 | 0.0933 | 0.201 | 0.223 | 0.229 | 0.185 | 0.264 | 1.05 | 0.995 | 1.06 | 1.06 | 1 | 0.391 | 0.514 | 0.389 | 0.384 | 0.437
21 | PC-3 [JPC-3] | – | 0.81 | 0.746 | 0.659 | 0.709 | 0.614 | 0.628 | 0.687 | 0.632 | 0.741 | 1.01 | 0.992 | 0.94 | 0.907 | 0.901 | 0.765 | 0.803 | 0.907 | 0.829 | 0.732
22 | PC-14 | 0.191 | – | 0.171 | 0.173 | 0.129 | 0.751 | 0.74 | 0.536 | 0.162 | 0.0928 | 0.924 | 0.982 | 0.959 | 0.922 | 0.948 | 0.246 | 0.228 | 0.238 | 0.0977 | 0.0677
23 | RERF-LC-KJ | 1.22 | 1.45 | 1.2 | 1.3 | 0.849 | 0.659 | 1.02 | 0.696 | 0.514 | 0.513 | 0.816 | 0.858 | 0.873 | 0.943 | 0.887 | 0.78 | 0.671 | 0.598 | 0.334 | 0.282
24 | SK-LU-1 | 0.182 | 0.224 | 0.188 | 0.2 | 0.173 | 0.375 | 0.528 | 0.445 | 0.361 | 0.282 | 1.1 | 1.23 | 0.891 | 0.435 | 0.43 | 0.68 | 0.745 | 0.554 | 0.445 | 0.473
25 | SK-MES-1 | 0.862 | 0.759 | 0.791 | 0.805 | 0.304 | 0.563 | 0.572 | 0.513 | 0.283 | 0.192 | 0.952 | 1.07 | 1.07 | 1.05 | 0.936 | 0.353 | 0.328 | 0.261 | 0.196 | 0.194
26 | SW 1573 | 0.192 | 0.204 | 0.197 | 0.214 | 0.204 | 0.463 | 0.589 | 0.187 | 0.102 | 0.067 | 0.669 | 0.831 | 0.858 | 0.586 | 0.529 | 0.566 | 0.417 | 0.166 | 0.129 | 0.098
